Experimental data as given in ChEMBL document CHEMBL1145498, “A systematic interaction map of validated kinase inhibitors with Ser/Thr kinases” (Proc Natl Acad Sci U S A, 2007).

Molecular target: Calcium/calmodulin-dependent protein kinase type II subunit beta (Homo sapiens) (UniProt Q13554)
Sequence (Q13554 whole entry): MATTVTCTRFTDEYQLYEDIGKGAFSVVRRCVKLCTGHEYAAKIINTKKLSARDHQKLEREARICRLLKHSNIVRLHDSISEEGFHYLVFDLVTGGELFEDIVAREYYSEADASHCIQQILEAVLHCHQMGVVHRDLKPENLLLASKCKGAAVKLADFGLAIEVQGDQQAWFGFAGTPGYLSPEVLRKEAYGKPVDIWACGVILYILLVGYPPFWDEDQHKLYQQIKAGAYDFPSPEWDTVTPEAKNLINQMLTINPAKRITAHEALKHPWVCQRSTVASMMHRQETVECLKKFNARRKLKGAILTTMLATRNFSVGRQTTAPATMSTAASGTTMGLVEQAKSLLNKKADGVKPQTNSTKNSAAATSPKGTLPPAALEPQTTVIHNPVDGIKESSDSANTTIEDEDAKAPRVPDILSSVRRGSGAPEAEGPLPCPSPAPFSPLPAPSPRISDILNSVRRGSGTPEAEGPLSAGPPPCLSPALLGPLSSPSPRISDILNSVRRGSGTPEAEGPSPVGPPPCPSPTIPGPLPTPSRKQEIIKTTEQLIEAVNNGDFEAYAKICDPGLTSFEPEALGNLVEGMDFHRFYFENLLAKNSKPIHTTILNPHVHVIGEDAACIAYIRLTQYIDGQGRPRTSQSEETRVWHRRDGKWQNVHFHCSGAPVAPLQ

Compound | ΔTm [°C]
Oc1ccc(-c2nc(-c3ccc(F)cc3)c(-c3ccncc3)[nH]2)cc1 | 0.1
O=C1NC(=O)C(c2c[nH]c3ccccc23)=C1c1c[nH]c2ccccc12 | 1.2
O=c1cc(N2CCOCC2)oc2c(-c3ccccc3)cccc12 | 0.5
O=[N+]([O-])c1ccc(-c2nc(-c3ccc(F)cc3)c(-c3ccncc3)[nH]2)cc1 | -0.5
Oc1cccc(-c2nc(N3CCOCC3)c3oc4ncccc4c3n2)c1 | 0.1
N#C/C(=C1/Nc2ccccc2S1)c1ccnc(NCCc2cccnc2)n1 | 1.8
COc1cc2ncnc(Nc3cccc(Br)c3)c2cc1OC | 0

Other lines, results leading:

ΔTm [°C] | Compound
2.1 | O=C1Nc2ccccc2/C1=C1/Nc2ccccc2/C1=N\O
1 | CN(C)CC1CCn2c(c(C3=C(c4c[nH]c5ccccc45)C(=O)NC3=O)c3ccccc32)C1 (stereo not given)
-0.2 | Nc1nccc(-c2c(-c3ccc(F)cc3)ncn2C2CCNCC2)n1
0.2 | N#C/C(=C\c1ccc(O)c(O)c1)C(=O)Nc1ccccc1
0.2 | N#C/C(=C\c1ccc(O)c(O)c1)C(=O)NCc1ccccc1

Molecular target: Glycogen synthase kinase-3 beta (Homo sapiens, UniProt P49841)
Sequence (P49841 whole entry, looked up): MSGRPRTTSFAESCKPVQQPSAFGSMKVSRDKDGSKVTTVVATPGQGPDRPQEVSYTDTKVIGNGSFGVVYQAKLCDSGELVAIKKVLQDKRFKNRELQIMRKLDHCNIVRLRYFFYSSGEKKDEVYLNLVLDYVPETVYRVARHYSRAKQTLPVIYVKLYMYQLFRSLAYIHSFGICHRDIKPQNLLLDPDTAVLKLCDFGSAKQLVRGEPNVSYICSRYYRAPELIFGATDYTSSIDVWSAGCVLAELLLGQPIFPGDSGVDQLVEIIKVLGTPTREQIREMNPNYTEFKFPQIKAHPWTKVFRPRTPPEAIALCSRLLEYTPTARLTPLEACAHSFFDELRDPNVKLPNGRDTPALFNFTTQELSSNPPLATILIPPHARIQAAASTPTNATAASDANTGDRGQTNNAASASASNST

Compound | ΔTm [°C]
Oc1ccc(-c2nc(-c3ccc(F)cc3)c(-c3ccncc3)[nH]2)cc1 | 4.7
O=C1NC(=O)C(c2c[nH]c3ccccc23)=C1c1c[nH]c2ccccc12 | 7.8
O=c1cc(N2CCOCC2)oc2c(-c3ccccc3)cccc12 | 1.1
O=[N+]([O-])c1ccc(-c2nc(-c3ccc(F)cc3)c(-c3ccncc3)[nH]2)cc1 | 6.9
Oc1cccc(-c2nc(N3CCOCC3)c3oc4ncccc4c3n2)c1 | 0.1
N#C/C(=C1/Nc2ccccc2S1)c1ccnc(NCCc2cccnc2)n1 | 11.4
COc1cc2ncnc(Nc3cccc(Br)c3)c2cc1OC | 1.5

Other lines, results leading:

ΔTm [°C] | Compound
11 | O=C1Nc2ccccc2/C1=C1/Nc2ccccc2/C1=N\O
9.2 | CN(C)CC1CCn2c(c(C3=C(c4c[nH]c5ccccc45)C(=O)NC3=O)c3ccccc32)C1 (stereo not given)
0.9 | Nc1nccc(-c2c(-c3ccc(F)cc3)ncn2C2CCNCC2)n1
0.7 | N#C/C(=C\c1ccc(O)c(O)c1)C(=O)Nc1ccccc1
2.6 | N#C/C(=C\c1ccc(O)c(O)c1)C(=O)NCc1ccccc1

Molecular target: Serine/threonine-protein kinase VRK2 (Homo sapiens) (UniProt Q86Y07)
Sequence (Q86Y07 whole entry): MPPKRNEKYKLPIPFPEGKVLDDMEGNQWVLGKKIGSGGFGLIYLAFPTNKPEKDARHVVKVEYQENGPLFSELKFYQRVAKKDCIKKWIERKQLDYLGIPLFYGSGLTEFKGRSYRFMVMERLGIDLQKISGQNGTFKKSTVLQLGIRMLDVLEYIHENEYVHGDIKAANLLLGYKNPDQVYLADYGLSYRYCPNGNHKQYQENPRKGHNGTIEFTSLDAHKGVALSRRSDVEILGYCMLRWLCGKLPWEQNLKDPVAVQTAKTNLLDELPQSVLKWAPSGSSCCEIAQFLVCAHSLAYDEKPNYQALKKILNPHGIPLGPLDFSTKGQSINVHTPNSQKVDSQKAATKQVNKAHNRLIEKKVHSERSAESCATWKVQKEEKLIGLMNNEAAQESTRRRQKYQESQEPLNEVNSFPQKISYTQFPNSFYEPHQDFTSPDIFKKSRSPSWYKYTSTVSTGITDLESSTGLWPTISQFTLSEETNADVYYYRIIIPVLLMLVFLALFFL

Compound | ΔTm [°C]
Oc1ccc(-c2nc(-c3ccc(F)cc3)c(-c3ccncc3)[nH]2)cc1 | 0.7
O=C1NC(=O)C(c2c[nH]c3ccccc23)=C1c1c[nH]c2ccccc12 | 1
O=c1cc(N2CCOCC2)oc2c(-c3ccccc3)cccc12 | 0.6
O=[N+]([O-])c1ccc(-c2nc(-c3ccc(F)cc3)c(-c3ccncc3)[nH]2)cc1 | 1.5
Oc1cccc(-c2nc(N3CCOCC3)c3oc4ncccc4c3n2)c1 | 0.4
N#C/C(=C1/Nc2ccccc2S1)c1ccnc(NCCc2cccnc2)n1 | 1.8
COc1cc2ncnc(Nc3cccc(Br)c3)c2cc1OC | 0.4

Results, then the compound that gave them:

ΔTm [°C] | Compound
4.2 | O=C1Nc2ccccc2/C1=C1/Nc2ccccc2/C1=N\O
0.7 | CN(C)CC1CCn2c(c(C3=C(c4c[nH]c5ccccc45)C(=O)NC3=O)c3ccccc32)C1 (stereo not given)
0.2 | Nc1nccc(-c2c(-c3ccc(F)cc3)ncn2C2CCNCC2)n1
0.3 | N#C/C(=C\c1ccc(O)c(O)c1)C(=O)Nc1ccccc1
0.2 | N#C/C(=C\c1ccc(O)c(O)c1)C(=O)NCc1ccccc1

Molecular target: Serine/threonine-protein kinase PAK 6 (Homo sapiens) (UniProt Q9NQU5)
Sequence (Q9NQU5 whole entry, looked up): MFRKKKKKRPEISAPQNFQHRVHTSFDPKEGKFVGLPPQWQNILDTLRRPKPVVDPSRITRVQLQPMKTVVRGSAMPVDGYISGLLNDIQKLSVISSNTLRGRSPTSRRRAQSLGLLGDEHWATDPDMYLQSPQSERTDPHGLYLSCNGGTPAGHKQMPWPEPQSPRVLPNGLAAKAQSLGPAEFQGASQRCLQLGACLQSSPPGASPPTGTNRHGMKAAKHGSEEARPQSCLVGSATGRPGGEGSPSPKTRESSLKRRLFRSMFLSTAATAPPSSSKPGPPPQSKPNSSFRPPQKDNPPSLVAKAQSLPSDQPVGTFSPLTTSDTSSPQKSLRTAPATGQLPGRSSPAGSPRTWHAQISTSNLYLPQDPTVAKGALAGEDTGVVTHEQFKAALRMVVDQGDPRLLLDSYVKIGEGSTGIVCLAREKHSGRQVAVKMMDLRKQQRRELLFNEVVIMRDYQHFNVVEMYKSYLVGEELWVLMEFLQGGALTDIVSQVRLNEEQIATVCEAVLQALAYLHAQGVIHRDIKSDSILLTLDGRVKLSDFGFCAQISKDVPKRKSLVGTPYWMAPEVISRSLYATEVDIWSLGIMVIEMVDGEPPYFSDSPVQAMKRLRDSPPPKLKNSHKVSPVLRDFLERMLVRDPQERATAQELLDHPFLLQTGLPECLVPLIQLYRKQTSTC

Compound | ΔTm [°C]
Oc1ccc(-c2nc(-c3ccc(F)cc3)c(-c3ccncc3)[nH]2)cc1 | -0.2
O=C1NC(=O)C(c2c[nH]c3ccccc23)=C1c1c[nH]c2ccccc12 | 0.8
O=c1cc(N2CCOCC2)oc2c(-c3ccccc3)cccc12 | -0.6
O=[N+]([O-])c1ccc(-c2nc(-c3ccc(F)cc3)c(-c3ccncc3)[nH]2)cc1 | -0.2
Oc1cccc(-c2nc(N3CCOCC3)c3oc4ncccc4c3n2)c1 | 0.7
N#C/C(=C1/Nc2ccccc2S1)c1ccnc(NCCc2cccnc2)n1 | 1.6
COc1cc2ncnc(Nc3cccc(Br)c3)c2cc1OC | 0.1

Now from value to compound:

ΔTm [°C] | Compound
2.9 | O=C1Nc2ccccc2/C1=C1/Nc2ccccc2/C1=N\O
0.7 | CN(C)CC1CCn2c(c(C3=C(c4c[nH]c5ccccc45)C(=O)NC3=O)c3ccccc32)C1 (stereo not given)
-0.5 | Nc1nccc(-c2c(-c3ccc(F)cc3)ncn2C2CCNCC2)n1
0 | N#C/C(=C\c1ccc(O)c(O)c1)C(=O)Nc1ccccc1
-0.4 | N#C/C(=C\c1ccc(O)c(O)c1)C(=O)NCc1ccccc1

Molecular target: Serine/threonine-protein kinase 16 (Homo sapiens) (UniProt O75716)
Sequence (O75716 whole entry): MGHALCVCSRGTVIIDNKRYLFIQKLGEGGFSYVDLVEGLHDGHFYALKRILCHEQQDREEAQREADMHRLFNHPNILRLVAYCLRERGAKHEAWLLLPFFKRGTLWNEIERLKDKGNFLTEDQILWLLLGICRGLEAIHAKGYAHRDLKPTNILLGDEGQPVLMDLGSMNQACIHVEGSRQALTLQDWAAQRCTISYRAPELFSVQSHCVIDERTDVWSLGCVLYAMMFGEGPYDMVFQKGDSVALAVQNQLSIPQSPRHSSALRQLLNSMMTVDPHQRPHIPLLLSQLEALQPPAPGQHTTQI

Compound | ΔTm [°C]
Oc1ccc(-c2nc(-c3ccc(F)cc3)c(-c3ccncc3)[nH]2)cc1 | 0.5
O=C1NC(=O)C(c2c[nH]c3ccccc23)=C1c1c[nH]c2ccccc12 | 3.5
O=c1cc(N2CCOCC2)oc2c(-c3ccccc3)cccc12 | 0.4
O=[N+]([O-])c1ccc(-c2nc(-c3ccc(F)cc3)c(-c3ccncc3)[nH]2)cc1 | 0.5
Oc1cccc(-c2nc(N3CCOCC3)c3oc4ncccc4c3n2)c1 | 0.3
N#C/C(=C1/Nc2ccccc2S1)c1ccnc(NCCc2cccnc2)n1 | 5.5
COc1cc2ncnc(Nc3cccc(Br)c3)c2cc1OC | 0.4

Further lines, results first:

ΔTm [°C] | Compound
11.7 | O=C1Nc2ccccc2/C1=C1/Nc2ccccc2/C1=N\O
1.3 | CN(C)CC1CCn2c(c(C3=C(c4c[nH]c5ccccc45)C(=O)NC3=O)c3ccccc32)C1 (stereo not given)
-0.1 | Nc1nccc(-c2c(-c3ccc(F)cc3)ncn2C2CCNCC2)n1
0.1 | N#C/C(=C\c1ccc(O)c(O)c1)C(=O)Nc1ccccc1
0.4 | N#C/C(=C\c1ccc(O)c(O)c1)C(=O)NCc1ccccc1

Molecular target: Cyclin-dependent kinase-like 1 (Homo sapiens) (UniProt Q00532)
Sequence (Q00532 whole entry): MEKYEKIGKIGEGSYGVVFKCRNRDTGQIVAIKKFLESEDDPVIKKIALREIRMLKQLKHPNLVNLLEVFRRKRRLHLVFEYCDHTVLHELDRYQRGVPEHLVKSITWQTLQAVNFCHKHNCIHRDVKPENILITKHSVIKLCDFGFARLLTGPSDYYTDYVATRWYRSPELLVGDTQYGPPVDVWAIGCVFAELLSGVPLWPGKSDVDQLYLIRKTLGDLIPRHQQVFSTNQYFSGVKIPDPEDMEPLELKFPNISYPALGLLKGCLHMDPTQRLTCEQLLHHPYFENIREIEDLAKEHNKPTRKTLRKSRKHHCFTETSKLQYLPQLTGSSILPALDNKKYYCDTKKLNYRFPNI

Compound | ΔTm [°C]
Oc1ccc(-c2nc(-c3ccc(F)cc3)c(-c3ccncc3)[nH]2)cc1 | -0.2
O=C1NC(=O)C(c2c[nH]c3ccccc23)=C1c1c[nH]c2ccccc12 | 0.6
O=c1cc(N2CCOCC2)oc2c(-c3ccccc3)cccc12 | -0.5
O=[N+]([O-])c1ccc(-c2nc(-c3ccc(F)cc3)c(-c3ccncc3)[nH]2)cc1 | 0
Oc1cccc(-c2nc(N3CCOCC3)c3oc4ncccc4c3n2)c1 | -0.3
N#C/C(=C1/Nc2ccccc2S1)c1ccnc(NCCc2cccnc2)n1 | 3.1
COc1cc2ncnc(Nc3cccc(Br)c3)c2cc1OC | 0.1

More lines, now with the values ahead:

ΔTm [°C] | Compound
6.1 | O=C1Nc2ccccc2/C1=C1/Nc2ccccc2/C1=N\O
0.5 | CN(C)CC1CCn2c(c(C3=C(c4c[nH]c5ccccc45)C(=O)NC3=O)c3ccccc32)C1 (stereo not given)
0.4 | Nc1nccc(-c2c(-c3ccc(F)cc3)ncn2C2CCNCC2)n1
-0.1 | N#C/C(=C\c1ccc(O)c(O)c1)C(=O)Nc1ccccc1
-0.3 | N#C/C(=C\c1ccc(O)c(O)c1)C(=O)NCc1ccccc1

Molecular target: Serine/threonine-protein kinase 38 (Homo sapiens) (UniProt Q15208)
Sequence (Q15208 2-465 limits assumed): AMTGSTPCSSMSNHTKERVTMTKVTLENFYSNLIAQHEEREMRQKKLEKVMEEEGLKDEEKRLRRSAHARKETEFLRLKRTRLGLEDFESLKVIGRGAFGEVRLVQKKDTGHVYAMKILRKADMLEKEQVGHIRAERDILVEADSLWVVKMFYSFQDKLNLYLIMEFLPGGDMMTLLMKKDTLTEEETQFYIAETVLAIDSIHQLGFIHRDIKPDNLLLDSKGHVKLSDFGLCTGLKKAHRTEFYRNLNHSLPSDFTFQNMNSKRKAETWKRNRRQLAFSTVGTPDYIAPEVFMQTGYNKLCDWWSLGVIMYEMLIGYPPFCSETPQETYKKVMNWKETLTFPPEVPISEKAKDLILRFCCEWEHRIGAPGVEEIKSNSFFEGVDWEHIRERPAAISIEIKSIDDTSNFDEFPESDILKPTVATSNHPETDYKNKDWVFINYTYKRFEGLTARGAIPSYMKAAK

Compound | ΔTm [°C]
Oc1ccc(-c2nc(-c3ccc(F)cc3)c(-c3ccncc3)[nH]2)cc1 | 0.7
O=C1NC(=O)C(c2c[nH]c3ccccc23)=C1c1c[nH]c2ccccc12 | 0.5
O=c1cc(N2CCOCC2)oc2c(-c3ccccc3)cccc12 | 0.6
O=[N+]([O-])c1ccc(-c2nc(-c3ccc(F)cc3)c(-c3ccncc3)[nH]2)cc1 | 0.9
Oc1cccc(-c2nc(N3CCOCC3)c3oc4ncccc4c3n2)c1 | 0
N#C/C(=C1/Nc2ccccc2S1)c1ccnc(NCCc2cccnc2)n1 | 2.2
COc1cc2ncnc(Nc3cccc(Br)c3)c2cc1OC | 0.4

Now from value to compound:

ΔTm [°C] | Compound
3.8 | O=C1Nc2ccccc2/C1=C1/Nc2ccccc2/C1=N\O
0.3 | CN(C)CC1CCn2c(c(C3=C(c4c[nH]c5ccccc45)C(=O)NC3=O)c3ccccc32)C1 (stereo not given)
0.3 | Nc1nccc(-c2c(-c3ccc(F)cc3)ncn2C2CCNCC2)n1
0 | N#C/C(=C\c1ccc(O)c(O)c1)C(=O)Nc1ccccc1
0.1 | N#C/C(=C\c1ccc(O)c(O)c1)C(=O)NCc1ccccc1

Molecular target: Casein kinase I isoform gamma-1 (Homo sapiens) (UniProt Q9HCP0)
Sequence (Q9HCP0 whole entry, looked up, canonical isoform): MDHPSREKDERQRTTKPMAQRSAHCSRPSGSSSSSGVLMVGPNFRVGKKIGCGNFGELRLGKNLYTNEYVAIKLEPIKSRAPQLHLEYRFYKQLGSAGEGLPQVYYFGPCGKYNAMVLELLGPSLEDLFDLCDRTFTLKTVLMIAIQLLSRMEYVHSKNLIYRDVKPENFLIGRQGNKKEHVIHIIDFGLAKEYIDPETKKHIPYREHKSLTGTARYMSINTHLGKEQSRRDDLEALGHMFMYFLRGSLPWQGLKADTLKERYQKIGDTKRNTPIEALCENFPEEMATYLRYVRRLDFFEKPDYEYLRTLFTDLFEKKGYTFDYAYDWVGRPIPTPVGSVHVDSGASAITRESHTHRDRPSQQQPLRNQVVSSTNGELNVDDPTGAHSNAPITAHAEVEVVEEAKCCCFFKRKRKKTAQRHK

Compound | ΔTm [°C]
Oc1ccc(-c2nc(-c3ccc(F)cc3)c(-c3ccncc3)[nH]2)cc1 | 1
O=C1NC(=O)C(c2c[nH]c3ccccc23)=C1c1c[nH]c2ccccc12 | 0.6
O=c1cc(N2CCOCC2)oc2c(-c3ccccc3)cccc12 | 0.6
O=[N+]([O-])c1ccc(-c2nc(-c3ccc(F)cc3)c(-c3ccncc3)[nH]2)cc1 | 3
Oc1cccc(-c2nc(N3CCOCC3)c3oc4ncccc4c3n2)c1 | 0.4
N#C/C(=C1/Nc2ccccc2S1)c1ccnc(NCCc2cccnc2)n1 | 3.7
COc1cc2ncnc(Nc3cccc(Br)c3)c2cc1OC | 0.8

Further lines, results first:

ΔTm [°C] | Compound
2.4 | O=C1Nc2ccccc2/C1=C1/Nc2ccccc2/C1=N\O
0.5 | CN(C)CC1CCn2c(c(C3=C(c4c[nH]c5ccccc45)C(=O)NC3=O)c3ccccc32)C1 (stereo not given)
3 | Nc1nccc(-c2c(-c3ccc(F)cc3)ncn2C2CCNCC2)n1
1 | N#C/C(=C\c1ccc(O)c(O)c1)C(=O)Nc1ccccc1
0.4 | N#C/C(=C\c1ccc(O)c(O)c1)C(=O)NCc1ccccc1

Molecular target: T1, Serine/threonine-protein kinase PLK4 (Homo sapiens) (UniProt O00444)
T1 sequence (whole entry): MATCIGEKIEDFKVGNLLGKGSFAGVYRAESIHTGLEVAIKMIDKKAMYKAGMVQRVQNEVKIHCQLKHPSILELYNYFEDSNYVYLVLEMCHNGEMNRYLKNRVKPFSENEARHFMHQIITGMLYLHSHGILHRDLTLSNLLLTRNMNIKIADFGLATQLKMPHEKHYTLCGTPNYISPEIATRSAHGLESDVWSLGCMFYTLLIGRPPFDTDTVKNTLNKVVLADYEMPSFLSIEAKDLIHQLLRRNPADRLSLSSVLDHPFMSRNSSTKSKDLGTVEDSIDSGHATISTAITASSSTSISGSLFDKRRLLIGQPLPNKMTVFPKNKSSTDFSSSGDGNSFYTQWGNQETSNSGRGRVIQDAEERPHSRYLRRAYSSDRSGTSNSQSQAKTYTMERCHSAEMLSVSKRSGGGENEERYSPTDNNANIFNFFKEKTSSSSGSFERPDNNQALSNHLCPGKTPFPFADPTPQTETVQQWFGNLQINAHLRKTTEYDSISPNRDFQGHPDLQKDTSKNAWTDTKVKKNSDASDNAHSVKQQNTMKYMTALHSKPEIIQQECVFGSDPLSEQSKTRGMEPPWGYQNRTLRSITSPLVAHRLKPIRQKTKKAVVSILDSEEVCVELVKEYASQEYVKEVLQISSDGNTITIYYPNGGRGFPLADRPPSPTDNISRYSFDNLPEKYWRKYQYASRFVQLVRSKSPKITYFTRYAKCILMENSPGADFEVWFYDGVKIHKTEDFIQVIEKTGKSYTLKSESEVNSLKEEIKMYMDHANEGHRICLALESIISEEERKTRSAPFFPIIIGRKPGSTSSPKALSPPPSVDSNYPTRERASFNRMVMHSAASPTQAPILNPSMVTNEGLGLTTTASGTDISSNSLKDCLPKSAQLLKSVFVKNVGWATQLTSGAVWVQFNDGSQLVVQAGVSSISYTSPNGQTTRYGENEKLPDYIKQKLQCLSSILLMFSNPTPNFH

Compound | ΔTm [°C]
Oc1ccc(-c2nc(-c3ccc(F)cc3)c(-c3ccncc3)[nH]2)cc1 | 1.1
O=C1NC(=O)C(c2c[nH]c3ccccc23)=C1c1c[nH]c2ccccc12 | 4.2
O=c1cc(N2CCOCC2)oc2c(-c3ccccc3)cccc12 | 0
O=[N+]([O-])c1ccc(-c2nc(-c3ccc(F)cc3)c(-c3ccncc3)[nH]2)cc1 | 1.8
Oc1cccc(-c2nc(N3CCOCC3)c3oc4ncccc4c3n2)c1 | 0.4
N#C/C(=C1/Nc2ccccc2S1)c1ccnc(NCCc2cccnc2)n1 | 5.2
COc1cc2ncnc(Nc3cccc(Br)c3)c2cc1OC | 3.4

Results, then the compound that gave them:

ΔTm [°C] | Compound
10.9 | O=C1Nc2ccccc2/C1=C1/Nc2ccccc2/C1=N\O
0.1 | CN(C)CC1CCn2c(c(C3=C(c4c[nH]c5ccccc45)C(=O)NC3=O)c3ccccc32)C1 (stereo not given)
0.2 | Nc1nccc(-c2c(-c3ccc(F)cc3)ncn2C2CCNCC2)n1
1.3 | N#C/C(=C\c1ccc(O)c(O)c1)C(=O)Nc1ccccc1
0.9 | N#C/C(=C\c1ccc(O)c(O)c1)C(=O)NCc1ccccc1

Molecular target: Serine/threonine-protein kinase PAK 4 (Homo sapiens) (UniProt O96013)
Sequence (O96013 whole entry, looked up): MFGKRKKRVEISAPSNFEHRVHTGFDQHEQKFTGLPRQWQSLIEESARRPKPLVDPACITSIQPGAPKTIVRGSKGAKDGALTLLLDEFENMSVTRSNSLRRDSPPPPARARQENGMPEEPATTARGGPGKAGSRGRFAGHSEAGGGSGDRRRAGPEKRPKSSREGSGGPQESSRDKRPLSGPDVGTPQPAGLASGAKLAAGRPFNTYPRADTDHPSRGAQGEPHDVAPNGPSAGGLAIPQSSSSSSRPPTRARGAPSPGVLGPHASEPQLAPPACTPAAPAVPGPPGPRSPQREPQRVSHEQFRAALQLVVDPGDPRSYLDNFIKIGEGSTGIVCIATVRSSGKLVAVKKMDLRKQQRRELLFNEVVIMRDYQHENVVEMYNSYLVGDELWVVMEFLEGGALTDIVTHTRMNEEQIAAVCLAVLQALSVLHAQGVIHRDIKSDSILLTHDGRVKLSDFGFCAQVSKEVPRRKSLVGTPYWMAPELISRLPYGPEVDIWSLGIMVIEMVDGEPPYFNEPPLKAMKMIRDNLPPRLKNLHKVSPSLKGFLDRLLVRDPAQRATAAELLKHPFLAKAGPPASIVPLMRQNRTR

Compound | ΔTm [°C]
Oc1ccc(-c2nc(-c3ccc(F)cc3)c(-c3ccncc3)[nH]2)cc1 | -0.3
O=C1NC(=O)C(c2c[nH]c3ccccc23)=C1c1c[nH]c2ccccc12 | 1.8
O=c1cc(N2CCOCC2)oc2c(-c3ccccc3)cccc12 | 0.9
O=[N+]([O-])c1ccc(-c2nc(-c3ccc(F)cc3)c(-c3ccncc3)[nH]2)cc1 | 0.1
Oc1cccc(-c2nc(N3CCOCC3)c3oc4ncccc4c3n2)c1 | 0.7
N#C/C(=C1/Nc2ccccc2S1)c1ccnc(NCCc2cccnc2)n1 | 1.3
COc1cc2ncnc(Nc3cccc(Br)c3)c2cc1OC | 0.2

Second part, the compound after the results:

ΔTm [°C] | Compound
3.4 | O=C1Nc2ccccc2/C1=C1/Nc2ccccc2/C1=N\O
1.5 | CN(C)CC1CCn2c(c(C3=C(c4c[nH]c5ccccc45)C(=O)NC3=O)c3ccccc32)C1 (stereo not given)
1 | Nc1nccc(-c2c(-c3ccc(F)cc3)ncn2C2CCNCC2)n1
-0.5 | N#C/C(=C\c1ccc(O)c(O)c1)C(=O)Nc1ccccc1
-0.1 | N#C/C(=C\c1ccc(O)c(O)c1)C(=O)NCc1ccccc1
